One experiment addresses Prothrombin (Homo sapiens, UniProt P00734). As to the kind of experiment: Enzyme Assay and Determination of the Inhibition Constants. To be noted: pH 7.5; 22 °C.
A further experiment concerns the target T1, Serine protease 1 (Bos taurus, UniProt P00760).
T1 sequence (P00760 whole entry): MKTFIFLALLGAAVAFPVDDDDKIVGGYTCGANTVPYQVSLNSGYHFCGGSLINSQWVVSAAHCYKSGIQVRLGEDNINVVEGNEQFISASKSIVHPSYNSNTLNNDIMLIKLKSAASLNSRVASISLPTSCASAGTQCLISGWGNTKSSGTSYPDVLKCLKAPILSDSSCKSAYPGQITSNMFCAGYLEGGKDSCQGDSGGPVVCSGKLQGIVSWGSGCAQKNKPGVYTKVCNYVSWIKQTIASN
Described as above. To be noted: pH 7.5; 22 °C.

What is called Ki is a dissociation constant, usually derived from enzyme kinetics or from competition with a known ligand. A low value points to higher affinity. In the case of `N=C(N)c1ccc(O)c(CN2CC[C@H](NS(=O)(=O)c3cc4ncccc4s3)C2=O)c1`, on Prothrombin, the Ki was > 4 µM.

Regarding `O=C1[C@@H](NS(=O)(=O)c2cc3ncccc3s2)CCN1Cc1cc2ccncc2[nH]1` [N-[(3S)-1-(4,7-diazabicyclo[4.3.0]nona-2,4,8,10-tetraen-8-ylmethyl)-2-oxo-pyrrolidin-3-yl]-7-thia-2-azabicyclo[4.3.0]nona-2,4,8,10-tetraene-8-sulfonamide], the results for the inhibition constant Ki at Serine protease 1 and at Prothrombin were > 2.9 µM and > 4 µM, respectively. For `Nc1nccc2ccc(CN3CC[C@H](NS(=O)(=O)c4cc5ncccc5s4)C3=O)cc12` [N-[(3S)-1-[(1-aminoisoquinolin-7-yl)methyl]-2-oxopyrrolidin-3-yl]thieno[3,2-b]pyridine-2-sulfonamide], the Ki on Serine protease 1 is > 2.9 µM; on Prothrombin, > 4 µM.

Values taken from BindingDB's records for doi:10.1021/jm000940u (Aventis Pharma, 2000).
